Here are results for five molecules from paper PMC8226722, “Comparison of Solution Chemical Properties and Biological Activity of Ruthenium Complexes of Selected β-Diketone, 8-Hydroxyquinoline and Pyrithione Ligands” (Pharmaceuticals, 2021).

The nature of data set [1]: Shake-flask n-octanol/water distribution coefficient. Type of data set: physicochemical. To be noted: 25.0 °C, 20 mM phosphate buffer.
Description: Chloride ion concentrations of 4, 24 and 100 mM were chosen according to the chloride content of the nucleus, cytosol and blood serum, respectively. […] Then parallel artificial membrane permeability assay (PAMPA) was used to estimate the ability of the complexes to penetrate membranes by passive diffusion and the effective passive permeability coefficients (Peff) obtained for complexes 1–3 are shown in Table 4 (in case of 4, there are no data due to formation of precipitate).
Distribution coefficients at physiological pH (D7.4) of the complexes were determined by the traditional shake-flask method in n-octanol/buffered aqueous solution at pH 7.40 (20 mM phosphate buffer) at various chloride concentrations and at 25.0 ± 0.2 °C using UV-vis detection as described in our former works [37, 38, 42]. PAMPA was applied for the complexes with a Gentest pre-coated PAMPA Plate System (Corning, Corning, NY, USA) [56]. Briefly, a 96-well filter plate was used as the permeation acceptor and the 96-well bottom plate was used as the permeation donor. For simplicity, PBS was used both as donor and acceptor buffer throughout this study. […] Peff values were calculated according to the equation reported by Yu et al. [57].
Data set [2] can be described thus: UV-vis interaction with 1-methylimidazole, monodentate binding model of HSA. As to conditions: pH 7.4, 102 mM chloride. How it is done: In our previous work, the fast interaction of complexes 7 and 8 with thiol-containing low molecular mass endogenous compounds Cys, N-acetylcysteine and glutathione was found on the basis of a mass spectrometry study. The donor atoms generally coordinate at the site of the monodentate co-ligand, however, they can also displace the weakly bound bidentate ligand as well. Herein, interaction of the complexes 1–4 towards 1-methylimidazole (mim), a monodentate binding model of HSA was measured by UV-vis (Figure 7d–f).
The reactions in all cases were very fast (except complex 2 and 4), and the observed spectral changes were similar to those obtained with HSA (Figure 7a–c). There was no indication for the replacement of the bidentate ligand by 1-methylimidazole. Considering that the latter ligand binds at the coordination site of the co-ligand, maximum one complex is able to be bound to 1-methylimidazole. However, the constant spectra upon addition of 1-methylimidazole to the complex 4 could only be reached at high excess of 1-methylimidazole due to its lower tendency to interact with this model (and with HSA as well). Based on these spectral changes, conditional binding constants were calculated for the formation of the 1-methylimidazole adducts. […] The protecting role of PTA in ligand-exchange processes for the complex pair 7 and 8 was also reported regarding their interaction with thiols or protein NCp7 [46, 47].

The test system of data set [3] is hormone dependent MCF-7 breast cancer cell line. More on the design: method as in PMID 27357845, PMID 31461189, PMID 24189185. As to conditions: read-out: half maximal effective concentration, MCF-7; cited from earlier work.
Data set [4] deals with array of cancer cell lines including cisplatin- and adriamycin-resistant strains. More on the design: method as in PMID 34065335. As to conditions: cited from earlier work.
In another data set the test system is Chlamydia trachomatis. Put plainly: Antichlamydia activity in HeLa cells, direct qPCR. To be noted: MOI 0.2, 48 h post infection. The data set is classed as cell-based. How it is done:
Then the Hela cells were infected with C. trachomatis at multiplicity of infection (MOI) 0.2, and were treated with different concentrations of the complexes for 24 h. After 48 h post infection, the cells were lysed and the chlamydial growth reducing effect of the complexes was evaluated by comparing the chlamydial genom concentration to that seen on untreated/infected HeLa cells. The C. trachomatis DNA concentration was measured by direct quantitative PCR (qPCR). The average cycle threshold (Ct) numbers were calculated and –Ct values are shown at the various complex concentrations in Figure 2 for 7 and 8 (and Figure S2 for the rest of the complexes). The maximum C. trachomatis growth corresponded to a DNA concentration of Ct ~19 value as detected by direct qPCR, as well.
The Chlamydia trachomatis strain was propagated and partially purified as described previously with some modifications. The infected cells were stained with monoclonal antichlamydia lipopolysaccharide (LPS) antibody (AbD Serotec, Oxford, UK) and fluorescein isothiocyanate-labeled anti-mouse IgG (Sigma-Aldrich) and the number of cells containing chlamydial inclusions was counted under a UV microscope, and the titer was expressed as the number of inclusion forming units (IFU)/mL. […]

Another data set relates to ovarian carcinoma CH1. Also on record: method as in PMID 25856666. To be noted: cited from earlier work.
Another data set has as its system osteosarcoma MG63 cells. More on the design: method as in PMID 25856666. To be noted: cited from earlier work.
A further data set deals with Vero cells. Put plainly: MTT cytotoxicity in Vero cells (maximum non-toxic concentration). To be noted: 24 h, up to 100 µM.
In data set [5] the test system is HeLa 229 human cervix carcinoma cells. The data set can be described thus: MTT cytotoxicity in HeLa 229 cells (maximum non-toxic concentration). To be noted: 48 h.
Description: (§1) HeLa 229 cells (ATCC) and Vero cells (ATCC) were cultured in minimal essential medium (MEM) (Sigma, Steinheim, Germany) with Earle salts supplemented with 10% heat-inactivated fetal bovine serum (FBS) (Gibco; ThermoFisher Scientific, Inc., Waltham, MA, USA), 2 mM L-glutamine, 1× non-essential amino acids, 8 mM HEPES, 25 μg/mL gentamycin and 1 µg/mL fungisone. The cells were incubated for 1 h at room temperature to reduce the edge effect and then overnight at 37 °C, 5% CO2 to obtain a 90% confluent cell layer.
(§2) The density of cells was 4 × 10^4 cells/well in 100 µL of MEM with Earle salts supplemented with 10% heat-inactivated FBS, 2 mM L-glutamine, 1× MEM vitamins, 1× non-essential amino acids, 0.005% Na-pyruvate, 25 µg/mL gentamycin, 1 µg/mL fungisone). The plates were incubated for 1 h room temperature and then overnight at 37 °C, 5% CO2. Next day, when the cells reached a ~90% confluency, the medium was supplemented with the serial 2-fold dilutions of the complexes in three parallel wells for each concentration. […] After 24 h incubation for Vero cells and 48 h incubation for HeLa cells, 10 µL of the MTT (Sigma, Steinheim, Germany) labelling reagent (final concentration 0.5 mg/mL) was added to each well and the plate was incubated for 4 h at 37 °C, 5% CO2. After the incubation, 100 µL of the solubilisation solution (10% SDS in 1 M HCl) was added into each well, and the plate was allowed to stand overnight in the incubator at 37 °C, 5% CO2.

pEC50, pIC50: −log10 of the molar value.

Description for Vero cells: The antiviral effect of complexes against HSV-2 was screened using Vero cells (originally isolated from kidney epithelial cells) to host the growing viruses.
as §1, §2

With `Cc1ccc(C(C)C)cc1.[Cl-].[O-]n1ccccc1=S.[Ru+2]` [complex 1], the logD7.4 in data set [1] (pH 7.4, c(KCl) 4 mM) is −0.43 ± 0.09; in data set [1] (pH 7.4, c(KCl) 24 mM), −0.10 ± 0.05; in data set [1] (pH 7.4, c(KCl) 100 mM), “+0.31 ± 0.03”. The “LogK’ conditional binding constant of 1-methylimidazole adduct” value (“LogK’ conditional binding constant” below) in [2] is recorded as 4.16 ± 0.45. Also, in data set [3], the pEC50 is 5.42.
As for `Cc1ccc(C(C)C)cc1.[Cl-].[O-]n1ccc2ccccc2c1=S.[Ru+2]` [complex 3], the logD7.4 result in [1] (pH 7.4, c(KCl) 4 mM) is listed as “+0.92 ± 0.06”; in [1] (pH 7.4, c(KCl) 24 mM), “+1.22 ± 0.04”; in data set [1] (pH 7.4, c(KCl) 100 mM) it was “+1.37 ± 0.06”. Besides, the “LogK’ conditional binding constant” value in data set [2] is listed as 4.18 ± 0.27.
Take `C1N2CN3CN1CP(C2)C3.Cc1ccc(C(C)C)cc1.F[P-](F)(F)(F)(F)F.[O-]n1ccc2ccccc2c1=S.[Ru+2]` [complex 4]: in [2], the “LogK’ conditional binding constant” value came out at 3.64 ± 0.02. The “concentration up to which inactive, cancer cell line panel” value in data set [4] was above 50 µM.
As to `Cc1ccc(C(C)C)cc1.O=C(C=C([O-])C(F)(F)F)c1ccc(Cl)cc1.[Cl-].[Ru+2]` [complex 7], the “chlamydial growth difference between treated and untreated cells” value in the data set on Chlamydia trachomatis was “ca. 101 fold”. For the same molecule, the pIC50 was 4.77 with ovarian carcinoma CH1 and 4.19 in the data set on osteosarcoma MG63 cells. The “toxicity in Vero cells” value in the data set with Vero cells is reported as “did not produce significant toxicity at any of the concentrations”. Besides, in [5], the “maximum non-toxic concentration, HeLa 229” value was determined as 50 µM.
For the molecule `C1N2CN3CN1CP(C2)C3.Cc1ccc(C(C)C)cc1.F[P-](F)(F)(F)(F)F.O=C(C=C([O-])C(F)(F)F)c1ccc(Cl)cc1.[Ru+2]` [complex 8], the “chlamydial growth difference between treated and untreated cells” value in the data set on Chlamydia trachomatis is “ca. 155 fold”. The pIC50 in the data set on ovarian carcinoma CH1 was 5.10; in the data set with osteosarcoma MG63 cells it was 4.39. For the same molecule, the “toxicity in Vero cells” value in the data set on Vero cells is reported as “did not produce significant toxicity at any of the concentrations”. Moreover, in [5], the “maximum non-toxic concentration, HeLa 229” value was determined as 50 µM.
